The values that follow are results of earlier work, collected in US20110142766A1, “Effervescent Multi-Vitamin Formulation and Methods of Use Thereof” (priority 2009, published 2011).

The test system of data set [1] is age-related macular degeneration.
Data set [2] deals with vision loss. Conditions: group treated with zinc compared with a group treated with a placebo.

On to `[Zn]` [zinc], for which the “reduction of risk of (central) vision loss” value in data set [1] (people at high risk for developing advanced AMD) is listed as “about 11%”. The “reduction of risk of developing advanced stages of AMD” value in data set [1] (people at high risk for developing advanced AMD (intermediate AMD, or advanced AMD in one eye only)) is on record as “about 21%”. Further, the “reduction in vision loss” value in data set [2] was “statistically significant reduction in vision loss”.
